Legend:
[1] = target: T1, cloned human 5-HT1A receptors (Homo sapiens, UniProt P08908); experiment: Inhibition of 3H-5-CT binding to human 5-HT1A receptors; settings: cloned human 5-HT1A receptors in HeLa cells (HA7); for inhibition at 0.1 µM: at 100 nM
T1 construct: expressed in transfected cells; host or cells: HeLa cells (HA7)
T1 sequence (P08908 1-422): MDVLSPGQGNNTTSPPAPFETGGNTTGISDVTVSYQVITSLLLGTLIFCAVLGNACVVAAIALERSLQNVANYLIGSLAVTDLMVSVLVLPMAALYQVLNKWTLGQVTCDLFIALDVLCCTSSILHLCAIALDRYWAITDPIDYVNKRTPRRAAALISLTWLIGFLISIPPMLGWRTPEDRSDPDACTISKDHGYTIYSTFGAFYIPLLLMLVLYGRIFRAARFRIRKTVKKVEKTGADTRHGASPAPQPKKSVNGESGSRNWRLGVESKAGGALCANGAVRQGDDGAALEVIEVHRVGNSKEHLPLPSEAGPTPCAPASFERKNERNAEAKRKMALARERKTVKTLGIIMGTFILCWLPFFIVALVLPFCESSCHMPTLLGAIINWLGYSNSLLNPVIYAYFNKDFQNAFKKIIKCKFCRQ
Protocol: The affinity of the compounds of the invention to 5-HT1A receptors was determined by measuring the inhibition of binding of a radioactive ligand at 5-HT1A receptors as described in the following test:
Inhibition of ^3H-5-CT Binding to Human 5-HT1A Receptors
By this method the inhibition by drugs of the binding of the 5-HT1A agonist ^3H-5-carboxamido tryptamine (3H-5-CT) to cloned human 5-HT1A receptors stably expressed in transfected HeLa cells (HA7) (Fargin, A. et al, J. Biol. Chem., 1989, 264, 14848) is determined in vitro. The assay was performed as a modification of the method described by Harrington, M. A. et at, J. Pharmacol. Exp. Ther., 1994, 268, 1098. Human 5-HT1A receptors (40 μg of cell homogenate) were incubated for 15 minutes at 37° C. in 50 mM Tris buffer at pH 7.7 in the presence of ^3H-5-CT. Non-specific binding was determined by including 10 μM of metergoline. The reaction was terminated by rapid filtration through Unifilter GF/B filters on a Tomtec Cell Harvester. Filters were counted in a Packard Top Counter.

[2] = target: T2, human cloned dopamine D4.2 receptors (Homo sapiens, UniProt P21917, DEL265-296); experiment: Inhibition of the binding of 3H-YM-09151-2 to human dopamine D4 receptors; settings: human cloned dopamine D4.2 receptors in CHO-cells; for inhibition at 0.05 µM: at 50 nM
T2 construct: expressed in transfected cells; host or cells: CHO cells
T2 sequence (P21917 with tags, fused parts or gaps DEL265-296): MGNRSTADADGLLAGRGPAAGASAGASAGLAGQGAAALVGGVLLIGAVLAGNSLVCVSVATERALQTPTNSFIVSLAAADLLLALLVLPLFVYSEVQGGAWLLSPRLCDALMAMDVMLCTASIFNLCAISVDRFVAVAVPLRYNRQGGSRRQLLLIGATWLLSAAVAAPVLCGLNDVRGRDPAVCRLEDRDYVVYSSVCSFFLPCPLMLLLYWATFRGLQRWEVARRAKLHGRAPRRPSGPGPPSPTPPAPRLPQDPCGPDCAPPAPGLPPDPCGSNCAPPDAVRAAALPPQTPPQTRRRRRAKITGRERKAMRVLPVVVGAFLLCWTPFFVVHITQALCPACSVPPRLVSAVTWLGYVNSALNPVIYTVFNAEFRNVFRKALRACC
Protocol: The compounds of the invention have also been tested for their affinity to dopamine D4 receptors in the following test.
Inhibition of the Binding of ^3H-YM-09151-2 to Human Dopamine D4 Receptors
By this method the inhibition by drugs of the binding of [^3H]YM-09151-2 (0.06 nM) to membranes of human cloned dopamine D4.2 receptors expressed in CHO-cells is determined in vitro. Method modified from NEN Life Science Products, Inc., technical data certificate PC2533-10/96.

Row | IC50 [1] | IC50 [2] | inhibition at 0.1 µM [1] | inhibition at 0.05 µM [2] | Molecule
1 | 1.7 nM | 2.4 nM | – | – | Fc1cc(F)c(OCCCN2CCN(c3cccc4c3OCCO4)CC2)c(Br)c1 [Compound 5bo, 1-[3-(2-Bromo-4,6-difluoro-phenoxy)-propyl]-4-(2,3-dihydro-benzo[1,4]dioxin-5-yl)-piperazine]
2 | – | – | 100% | 99% | Clc1ccc(SCCCN2CCN(c3cccc4c3OCCO4)CC2)cc1Cl [Compound 7am, 1-[3-(3,4-Dichloro-phenylsulfanyl)-propyl]-4-(2,3-dihydro-benzo[1,4]dioxin-5-yl)-piperazine]
3 | – | – | 101% | 91% | Fc1ccccc1SCCCCN1CCN(c2cccc3c2OCCO3)CC1 [Compound 7bf, 1-(2,3-Dihydro-benzo[1,4]dioxin-5-yl)-4-[4-(2-fluoro-phenylsulfanyl)-butyl]-piperazine]
4 | – | – | 97% | 84% | Fc1ccccc1SCCCN1CCN(c2cccc3c2OCCO3)CC1 [Compound 7ba, 1-(2,3-Dihydro-benzo[1,4]dioxin-5-yl)-4-[3-(2-fluoro-phenylsulfanyl)-propyl]-piperazine]
5 | 4.9 nM | 1.4 nM | – | – | Fc1ccc(OCCCN2CCN(c3cccc4c3OCCO4)CC2)c(F)c1 [Compound 5cf, 1-[3-(2,4-Difluoro-phenoxy)-propyl]-4-(2,3-dihydro-benzo[1,4]dioxin-5-yl)-piperazine]
6 | – | – | 100% | 92% | Clc1cccc(SCCCN2CCN(c3cccc4c3OCCO4)CC2)c1 [Compound 7az, 1-[3-(3-Chloro-phenylsulfanyl)-propyl]-4-(2,3-dihydro-benzo[1,4]dioxin-5-yl)-piperazine]
7 | 3.4 nM | 13 nM | – | – | Fc1cc(Br)c(OCCCN2CCN(c3cccc4c3OCCO4)CC2)c(Br)c1 [Compound 5aj, 1-[3-(2,6-Dibromo-4-fluoro-phenoxy)-propyl]-4-(2,3-dihydro-benzo[1,4]dioxin-5-yl)-piperazine]
8 | 21 nM | – | – | 91% | Cc1ccc(SCCN2CCN(c3cccc4c3OCCO4)CC2)c(C)c1 [Compound 7ad, 1-(2,3-Dihydro-benzo[1,4]dioxin-5-yl)-4-[2-(2,4-dimethyl-phenylsulfanyl)-ethyl]-piperazine]
9 | – | – | 80% | 93% | CCc1ccccc1SCCN1CCN(c2cccc3c2OCCO3)CC1 [Compound 7as, 1-(2,3-Dihydro-benzo[1,4]dioxin-5-yl)-4-[2-(2-ethyl-phenylsulfanyl)-ethyl]-piperazine]

More lines, now with the values behind:

Row | Molecule | IC50 [1] | IC50 [2] | inhibition at 0.1 µM [1] | inhibition at 0.05 µM [2]
10 | Fc1ccc(OCCCCN2CCN(c3cccc4ccsc34)CC2)c(Cl)c1 [Compound 5bc, 1-Benzo[b]thiophen-7-yl-4-[4-(2-chloro-4-fluoro-phenoxy)-butyl]-piperazine] | 53 nM | 1.9 nM | – | –
11 | N#Cc1ccc(OCCCCN2CCN(c3cccc4c3OCCO4)CC2)c(Cl)c1 [Compound 7bb, 3-Chloro-4-{4-[4-(2,3-dihydro-benzo[1,4]dioxin-5-yl)-piperazin-1-yl]-butoxy}-benzonitrile] | – | – | 101% | 94%
12 | N#Cc1ccc(N2CCN(CCCOc3ccccc3Cl)CC2)c2c1OCCO2 [Compound 6c, 8-{4-[3-(2-Chloro-phenoxy)-propyl]-piperazin-1-yl}-2,3-dihydro-benzo[1,4]dioxine-5-carbonitrile] | 68 nM | 13 nM | – | –
13 | CC1(C)COc2c(N3CCN(CCCOc4c(Cl)cc(F)cc4Cl)CC3)cc(Cl)cc21 [Compound 5bl, 1-(5-Chloro-3,3-dimethyl-2,3-dihydro-benzofuran-7-yl)-4-[3-(2,6-dichloro-4-fluoro-phenoxy)-propyl]-piperazine] | 88 nM | 26 nM | – | –
14 | 1-[3-(Bromo-trifluoromethyl-phenylsulfanyl)-propyl]-4-(2,3-dihydro-benzo[1,4]dioxin-5-yl)-piperazine [Compound 5ap] | 6.2 nM | 6.3 nM | – | –
15 | Fc1cc(F)c(OCCCN2CCN(c3cccc4ccsc34)CC2)c(Br)c1 [Compound 5bt, 1-Benzo[h]thiophen-7-yl-4-[3-(2-bromo-4,6-difluoro-phenoxy)-propyl]-piperazine] | 8.6 nM | 6.3 nM | – | –
